Measured values taken from patent US4798807A, “Monoclonal antibodies and method for detecting dioxins and dibenzofurans” (priority 1986, dated 1989).
Entries after “also recorded” stand apart in the source; their conditions may differ.

Columns and labels:
[1] = tested on: monoclonal antibodies DD-1, DD-3, DD-4, DD-5 and DD-6; assay: Competition ELISA, statements for all antibodies together; assay type: binding, BALB/c and Biozzi mice; details: for reactivity of all antibodies with competitor: up to the highest concentration tested (100 ppb)
Method: (§1) In this case the hybridomas were then screened for their ability to distinguish A-triCDD-BSA and A-triCDD-RSA from BSA and RSA. On the basis of this initial screen about 25 stable, antibody-producing colonies were isolated, subcloned, and frozen. The remaining clones were again screened for their abilities to recognize free TCDD in suspension. Experimentally, on the order of 10-100 nanograms of TCDD in hexane was dried, 0.5 ml of saline with BSA (1 mg/ml) was added and sonificated for 2 hrs. […] Identical procedures were followed for other dioxin isomers. A dilution series in microtiter plate wells was then made with the suspended TCDD, antibody adde, and the competition ELISA completed. Competition ELISA test procedures are discussed in detail in the following reference: Butt, W. R. (1984) "Practical Immunoassay: The State of the Art", Marcel Dekker, Inc., N.Y., N.Y.
(§2) A large part of the success that we have had in characterizing the binding specificities of our monoclonal antibodies comes from having developed a reliable competition ELISA protocol. Our preferred assay starts from stock solutions at 10 ppm in hexane of the various compounds listed in Table I. 10 μl of hexane solution is aliquoted into a small vial, evaporated under a stream of nitrogen gas, and 500 μl of a 1 mg/ml solution of BSA in phosphate buffered saline with 0.1% BSA is added. The vial is capped and placed in an ultrasonic cleaning waterbath for two hours. Two hours of sonification gives a more reproducible assay than does an hour. During the sonification, the hexane appears to evaporate completely, and one is left with an aqueous solution containing the dioxin. Microtiter plates coated with A-triCDD-RSA are blocked with a three percent solution of ovalbumin and a two-fold dilution series of sonificated dioxin-BSA is then made, covering the range 100 ppb-0.1 ppb. In each well of the plate 100 μl of the sonificated dioxin-BSA solution is mixed with n equal volume of antibody. The antibody partitions between the dioxin adsorbed to the BSA, and the A-tri-CDD-RSA on the plate.
(§3) A-TriCDD-RSA was adsorbed onto the surface of the wells of a microtiter plate. The various competitors listed were suspended in saline containing bovine serum albumin (BSA). These solutions were made by sonificating 10 μl of dioxin solution in hexane with 500 μl of saline-BSA. A dilution series of these dioxin-BSA solutions was then made covering the range of 100-0.2 ppb, and placed in the microtiter plate wells. An equal volume of DD-1 monoclonal antibody was then added, and allowed to react for 1 hour. Tne antibody binds either to the A-TriCDD-RSA on the plate or the dioxin in solution. After the hour, the solution phase is removed, the plate washed, and it is reincubated for an hour with peroxidase-conjugated goat-anti-mouse-immunoglobulins. A second washing is then done, and substrate (ABTS) added to the peroxidase. The enzyme-antibody conjugate and substrate function as a "developer", allowing the visualization of the DD-1 bound to the A-triCDD-RSA on the plate. Results are then expressed as a fraction of the response in wells with no competitor. […] At about 20 ppb of 2,3,7,8-TCDD the relative ELISA response is half of control, meaning that half the DD-1 antibody bound to the solution phase dioxin and half bound to the A-triCDD-RSA on the plate. For 1,2,3,7(8)-TCDD, 50% inhibition occurs at about 4 ppb, indicating the DD-1 prefers 1,2,3,7(8)-TCDD to 2,3,7,8-TCDD.
(§4) The FIGURE and Table II show representative competition data using several chlorinated compounds as competitors. From such data, one can determine the concentration required to inhibit antibody binding by 50% (I50). Table II lists the I50 for all compounds tested with the antibodies. In reporting these values, factors of two are about the limit of significance. […] The binding specificities of these antibodies are highly desirable, since they prefer the most toxic of the dioxin and dibenzofuran isomers.

monoclonal antibody DD-6 = assay: Competition ELISA with monoclonal antibody DD-6; assay type: binding, Biozzi mice; details: competitor vs monoclonal antibody DD-6; plate coated with A-triCDD-RSA
Method: as §1, §2, §3, §4

monoclonal antibody DD-4 = assay: Competition ELISA with monoclonal antibody DD-4; assay type: binding, BALB/c mice; details: competitor vs monoclonal antibody DD-4; plate coated with A-triCDD-RSA
Method: as §1, §2, §3, §4

monoclonal antibody DD-3 = assay: Competition ELISA with monoclonal antibody DD-3; assay type: binding, BALB/c mice; details: competitor vs monoclonal antibody DD-3; plate coated with A-triCDD-RSA
Method: as §1, §2, §3, §4

monoclonal antibody DD-1 = assay: Competition ELISA with monoclonal antibody DD-1; assay type: binding, Biozzi mice; details: for I50 (inhibits antibody binding by 50%): competitor vs monoclonal antibody DD-1, plate coated with A-triCDD-RSA
Method: as §1, §2, §3, §4

monoclonal antibody DD-5 = assay: Competition ELISA with monoclonal antibody DD-5; assay type: binding, Biozzi mice; details: competitor vs monoclonal antibody DD-5; plate coated with A-triCDD-RSA
Method: as §1, §2, §3, §4

Structure (SMILES) | reactivity of all antibodies with competitor [1] | I50 (inhibits antibody binding by 50%) (monoclonal antibody DD-6) | I50 (inhibits antibody binding by 50%) (monoclonal antibody DD-4) | I50 (inhibits antibody binding by 50%) (monoclonal antibody DD-3) | I50 (inhibits antibody binding by 50%) (monoclonal antibody DD-1) | I50 (inhibits antibody binding by 50%) (monoclonal antibody DD-5) | affinity / recognition by all antibodies [1] | concentration at which 50% inhibition occurs (relative ELISA response half of control) (monoclonal antibody DD-1; FIGURE, DD-1, competitor in saline-BSA, dilution series 100-0.2 ppb)
Clc1c(Cl)c(Cl)c2c(oc3c(Cl)c(Cl)c(Cl)c(Cl)c32)c1Cl [Octachloro-DBF] | either do not react or react only marginally | > 200 ng | > 200 ng | > 200 ng | > 200 ng | > 10 ng | – | –
Clc1cc2c(cc1Cl)Oc1cc(Cl)c(Cl)cc1O2 [2,3,7,8-TCDD, 2,3,7,8-tetrachlorodibenzo-p-dioxin] | – | 6 ng | 5 ng | 3 ng | 1 ng | 0.5 ng | slightly less affinity; also recorded: recognize | about 20 ppb
Clc1ccc2oc3c(Cl)c(Cl)c(Cl)c(Cl)c3c2c1Cl [1,2,3,4,8,9-Hexa-CDBF] | either do not react or react only marginally | > 150 ng | > 200 ng | > 200 ng | > 200 ng | > 10 ng | – | –
Clc1cc2oc3cc(Cl)c(Cl)cc3c2cc1Cl [2,3,7,8-TCDBF] | – | 0.5 ng | 5 ng | 0.9 ng | 0.65 ng | 1 ng | slightly less affinity | –
